Patent US6638979B1, “Imidamide derivatives” (Bayer Aktiengesellschaft, priority 1998, dated 2003)

Key:
[1] = system: Meloidogyne incognita; assay: Critical concentration test (soil treatment, lettuce root galls); assay type: in vivo; settings: active compound concentration of 20 ppm in soil, greenhouse 25° C., evaluated after three weeks
Description: Critical Concentration Test [table] To produce a suitable preparation of active compound, 1 part by weight of active compound is mixed with the stated amount of solvent, the stated amount of emulsifier is added and the concentrate is diluted to the desired concentration. The preparation of active compound is intimately mixed with the soil which is contaminated with the test nematodes. The concentration of the active compound in the preparation is here virtually unimportant, only the amount of active compound per volume unit of soil, which is stated in ppm (=mg/l), is decisive. The treated soil is filled into pots, lettuce is sown in and the pots are kept at a greenhouse temperature of 25° C. After three weeks, the roots of the lettuces are examined for infestation by nematodes (root galls), and the efficacy of the active compound in % is determined. The efficacy is 100% when infestation is avoided completely and 0% when the infestation level is just as high as in the control plants in untreated, but equally infested, soil.

With `CC(=NC#N)NC(C)c1ccc(Cl)cc1` (centres unmarked) [Preparation Example 1, [R]-N-cyano-N′-(4-chlorophenyl-eth-1-yl)-ethaneimidamide] the melting point was 125 °C and the “kill (efficacy of the active compound in %)” value [1] was 100%.
